Test results as given in patent publication US9809587B2, “Pesticidally active heterocyclic derivatives with sulphur containing substituents” (Syngenta Participations AG, priority 2014, dated 2017).

Legend:
Format in all cases: in vivo
[1] = system: Myzus persicae (Green Peach Aphid); experiment: Myzus persicae (green peach aphid), sprayed sunflower leaf discs; conditions: foliar, 144 h, application rate of 200 ppm, mixed ages on sunflower leaf discs, 6 days after infestation
Method: Example B4: Myzus persicae (Green Peach Aphid)
(§1) Sunflower leaf discs were placed on agar in a 24-well microtiter plate and sprayed with aqueous test solutions prepared from 10′000 ppm DMSO stock solutions. After drying, the leaf discs were infested with an aphid population of mixed ages. The samples were assessed for mortality 6 days after infestation.

[2] = system: Plutella xylostella (Diamond Back Moth); experiment: Plutella xylostella (diamond back moth), treated artificial diet; conditions: 120 h, application rate of 200 ppm, L2 larvae on artificial diet, 5 days after infestation, read-out: effect in at least one of the two categories (mortality or growth inhibition)
Procedure, shortened: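 Artificial diet treated with aqueous dilutions of DMSO stocks (10′000 ppm stock), dried, then infested with 10-15 L2 larvae per well. Mortality and growth inhibition assessed versus untreated controls 5 days after infestation.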

[3] = system: Euschistus heros (Neotropical Brown Stink Bug); experiment: Euschistus heros (neotropical brown stink bug), sprayed soybean leaf; conditions: 120 h, application rate of 200 ppm, N-2 nymphs on soybean leaf, 5 days after infestation
Method: Example B3: Euschistus heros (Neotropical Brown Stink Bug)
Soybean leaf on agar in 24-well microtiter plates were sprayed with aqueous test solutions prepared from 10′000 ppm DMSO stock solutions. After drying the leaf were infested with N-2 nymphs. The samples were assessed for mortality in comparison to untreated samples 5 days after infestation.

[4] = system: Spodoptera littoralis (Egyqptian Cotton Leaf Worm); experiment: Spodoptera littoralis (Egyptian cotton leaf worm), sprayed cotton leaf discs; conditions: foliar, 72 h, application rate of 200 ppm, L1 larvae on cotton leaf discs, 3 days after infestation
Procedure, shortened: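 Cotton leaf discs on agar were sprayed with aqueous dilutions made from 10′000 ppm DMSO stocks, then infested after drying with five L1 larvae. Mortality, anti-feedant effect and growth inhibition were scored against untreated discs 3 days after infestation. Control means at least one of these exceeds the untreated sample.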

[5] = system: Aedes aegypti (Yellow Fever Mosquito); experiment: Activity against Aedes aegypti (yellow fever mosquito), dried deposits in tissue culture plates; conditions: application rate of 200 ppm in ethanol, adult females, after 48 h
Method: Example B12: Activity Against Aedes aegypti (Yellow Fever Mosquito)
Test solutions, at an application rate of 200 ppm in ethanol, were applied to 12-well tissue culture plates. Once the deposits were dry, five, two to five days old adult female Aedes aegypti were added to each well, and sustained with a 10% sucrose solution in a cotton wool plug. Assessment of knockdown was made one hour after introduction, and mortality was assessed at 24 and 48 hours after introduction.
The following compounds gave at least 80% control of Aedes aegypti after 48 h: […]

[6] = system: Diabrotica balteata (Corn Root Worm); experiment: Diabrotica balteata (corn root worm), sprayed maize sprouts; conditions: 96 h, application rate of 200 ppm, L2 larvae on maize sprouts, 4 days after infestation
Method: Example B2: Diabrotica balteata (Corn Root Worm)
Maize sprouts, placed on an agar layer in 24-well microtiter plates were treated with aqueous test solutions prepared from 10′000 ppm DMSO stock solutions by spraying. After drying, the plates were infested with L2 larvae (6 to 10 per well). The samples were assessed for mortality and growth inhibition in comparison to untreated samples 4 days after infestation.

[7] = system: Spodoptera littoralis (Egyqptian Cotton Leaf Worm); experiment: Spodoptera littoralis (Egyptian cotton leaf worm), compound in agar taken up by lettuce roots; conditions: 144 h, test rate of 12.5 ppm, uptake by lettuce roots from agar, 6 days after infestation, read-out: effect in at least one of the three categories (mortality, anti-feedancy, or growth inhibition)
Text: Example B8: Spodoptera littoralis (Egyqptian Cotton Leaf Worm)
Test compounds were applied by pipette from 10′000 ppm DMSO stock solutions into 24-well plates and mixed with agar. Lettuce seeds were placed on the agar and the multi well plate was closed by another plate which contains also agar. After 7 days the roots have absorbed the compound and the lettuce has grown into the lid plate. The lettuce leafs were now cut off into the lid plate. Spodoptera eggs were pipetted through a plastic stencil on a humid gel blotting paper and the plate closed with it. The samples were assessed for mortality, anti-feedant effect and growth inhibition in comparison to untreated samples 6 days after infestation.
The following compounds gave an effect of at least 80% in at least one of the three categories (mortality, anti-feedancy, or growth inhibition) at a test rate of 12.5 ppm: […]

[8] = system: Bemisia tabaci (Cotton White Fly); experiment: Bemisia tabaci (cotton white fly), sprayed cotton leaf discs; conditions: foliar, 144 h, application rate of 200 ppm, adult white flies on cotton leaf discs, 6 days after incubation
Method: Example B1: Bemisia tabaci (Cotton White Fly)
Cotton leaf discs were placed on agar in 24-well microtiter plates and sprayed with aqueous test solutions prepared from 10′000 ppm DMSO stock solutions. After drying the leaf discs were infested with adult white flies. The samples were checked for mortality 6 days after incubation.

[9] = system: Myzus persicae (Green Peach Aphid); experiment: Myzus persicae (green peach aphid), roots of pea seedlings in test solution; conditions: 144 h, test rate of 24 ppm, roots of infested pea seedlings in test solution, 6 days
Method: Example B5: Myzus persicae (Green Peach Aphid)
Roots of pea seedlings infested with an aphid population of mixed ages were placed directly in the aqueous test solutions prepared from 10′000 DMSO stock solutions. The samples were assessed for mortality 6 days after placing seedlings in test solutions.

[10] = system: Frankliniella occidentalis (Western Flower Thrips); experiment: Frankliniella occidentalis (western flower thrips), sprayed sunflower leaf discs; conditions: foliar, 168 h, application rate of 200 ppm, mixed ages on sunflower leaf discs, 7 days after infestation
Method: Example B11: Frankliniella occidentalis (Western Flower Thrips)
as §1, with “in” for “in a”, “plates” for “plate”, “[…]” for “10′000 ppm”, “drying” for “drying,”, “a Frankliniella” for “an aphid”, “7” for “6”

CCS(=O)(=O)c1cc(-c2nccc(C#N)n2)cnc1-c1nc2cc(C(F)(F)F)ncc2n1C [Compound P101]
≥ 80%: mortality at 200 ppm [1] | percent effect (mortality or growth inhibition) at 200 ppm [2] | mortality at 200 ppm [3] | percent control (mortality, anti-feedant effect or growth inhibition) at 200 ppm [4] | pest or weed control at 200 ppm [5] | mortality at 200 ppm [6]

CCS(=O)(=O)c1cc(-c2ccnc(C(F)(F)F)n2)cnc1-c1nc2cc(C(F)(F)F)ncc2n1C [Compound P108]
≥ 80%: percent control (mortality, anti-feedancy or growth inhibition) at 12.5 ppm [7] | mortality at 200 ppm [1] | percent effect (mortality or growth inhibition) at 200 ppm [2] | mortality at 200 ppm [8] | mortality at 200 ppm [3] | percent control (mortality, anti-feedant effect or growth inhibition) at 200 ppm [4] | pest or weed control at 200 ppm [5] | mortality at 200 ppm [6]

CCS(=O)(=O)c1cc(-c2ncc(C)cn2)cnc1-c1nc2cc(C(F)(F)F)ncc2n1C [Compound P22]
≥ 80%: percent control (mortality, anti-feedancy or growth inhibition) at 12.5 ppm [7] | mortality at 200 ppm [1] | percent effect (mortality or growth inhibition) at 200 ppm [2] | mortality at 200 ppm [8] | mortality at 200 ppm [3] | percent control (mortality, anti-feedant effect or growth inhibition) at 200 ppm [4] | mortality at 24 ppm [9] | mortality at 200 ppm [6]

CCS(=O)(=O)c1cc(-c2cncc(C#N)c2)cnc1-c1nc2cc(C(F)(F)F)ncc2n1C [Compound P67]
≥ 80%: mortality at 200 ppm [1] | percent effect (mortality or growth inhibition) at 200 ppm [2] | mortality at 200 ppm [8] | mortality at 200 ppm [3] | mortality at 24 ppm [9] | mortality at 200 ppm [6]

CCS(=O)(=O)c1cc(-c2cc(C#N)ccn2)cnc1-c1nc2cc(C(F)(F)F)ncc2n1C [Compound P93]
≥ 80%: percent control (mortality, anti-feedancy or growth inhibition) at 12.5 ppm [7] | mortality at 200 ppm [10] | mortality at 200 ppm [1] | percent effect (mortality or growth inhibition) at 200 ppm [2] | mortality at 200 ppm [3] | percent control (mortality, anti-feedant effect or growth inhibition) at 200 ppm [4] | pest or weed control at 200 ppm [5] | mortality at 200 ppm [6]

CCS(=O)(=O)c1cc(-c2ccnc(F)c2)cnc1-c1nc2cc(C(F)(F)F)ncc2n1C [Compound P70]
≥ 80%: percent control (mortality, anti-feedancy or growth inhibition) at 12.5 ppm [7] | mortality at 200 ppm [10] | mortality at 200 ppm [1] | percent effect (mortality or growth inhibition) at 200 ppm [2] | mortality at 200 ppm [8] | mortality at 200 ppm [3] | percent control (mortality, anti-feedant effect or growth inhibition) at 200 ppm [4] | mortality at 24 ppm [9] | mortality at 200 ppm [6]

CCS(=O)(=O)c1cc(-c2ccnnc2)cnc1-c1nc2cc(C(F)(F)F)ncc2n1C [Compound P33]
≥ 80%: mortality at 200 ppm [1] | mortality at 200 ppm [8] | mortality at 200 ppm [3] | mortality at 24 ppm [9] | mortality at 200 ppm [6]

CCS(=O)(=O)c1cc(-n2ccc(Cl)n2)cnc1-c1nc2cc(C(F)(F)F)ncc2n1C [Compound P88]
≥ 80%: percent control (mortality, anti-feedancy or growth inhibition) at 12.5 ppm [7] | mortality at 200 ppm [1] | percent effect (mortality or growth inhibition) at 200 ppm [2] | mortality at 200 ppm [8] | mortality at 200 ppm [3] | percent control (mortality, anti-feedant effect or growth inhibition) at 200 ppm [4] | pest or weed control at 200 ppm [5] | mortality at 200 ppm [6]

CCS(=O)(=O)c1cc(-c2ccc(Cl)nc2)cnc1-c1nc2cc(C(F)(F)F)ncc2n1C [Compound P96]
≥ 80%: percent control (mortality, anti-feedancy or growth inhibition) at 12.5 ppm [7] | mortality at 200 ppm [10] | mortality at 200 ppm [1] | percent effect (mortality or growth inhibition) at 200 ppm [2] | mortality at 200 ppm [8] | mortality at 200 ppm [3] | percent control (mortality, anti-feedant effect or growth inhibition) at 200 ppm [4] | mortality at 200 ppm [6]

CCS(=O)(=O)c1cc(-c2nccc(OC)n2)cnc1-c1nc2cc(C(F)(F)F)ncc2n1C [Compound P104]
≥ 80%: percent control (mortality, anti-feedancy or growth inhibition) at 12.5 ppm [7] | mortality at 200 ppm [10] | mortality at 200 ppm [1] | percent effect (mortality or growth inhibition) at 200 ppm [2] | mortality at 200 ppm [3] | percent control (mortality, anti-feedant effect or growth inhibition) at 200 ppm [4] | mortality at 200 ppm [6]

CCS(=O)(=O)c1cc(-c2ncccc2Cl)cnc1-c1nc2cc(C(F)(F)F)ncc2n1C [Compound P32]
≥ 80%: percent control (mortality, anti-feedancy or growth inhibition) at 12.5 ppm [7] | mortality at 200 ppm [10] | mortality at 200 ppm [1] | percent effect (mortality or growth inhibition) at 200 ppm [2] | mortality at 200 ppm [3] | percent control (mortality, anti-feedant effect or growth inhibition) at 200 ppm [4] | mortality at 200 ppm [6]

CCS(=O)(=O)c1cc(-c2cnn(C)c2)cnc1-c1nc2cc(C(F)(F)F)ncc2n1C [Compound P6]
≥ 80%: percent control (mortality, anti-feedancy or growth inhibition) at 12.5 ppm [7] | mortality at 200 ppm [1] | percent effect (mortality or growth inhibition) at 200 ppm [2] | mortality at 200 ppm [8] | mortality at 200 ppm [3] | percent control (mortality, anti-feedant effect or growth inhibition) at 200 ppm [4] | mortality at 24 ppm [9] | mortality at 200 ppm [6]

CCS(=O)(=O)c1cc(-n2ccc(C(F)(F)F)n2)ccc1-c1nc2cc(C(F)(F)F)ncc2n1C [Compound P90]
≥ 80%: percent control (mortality, anti-feedancy or growth inhibition) at 12.5 ppm [7] | mortality at 200 ppm [1] | percent effect (mortality or growth inhibition) at 200 ppm [2] | mortality at 200 ppm [8] | mortality at 200 ppm [3] | percent control (mortality, anti-feedant effect or growth inhibition) at 200 ppm [4] | pest or weed control at 200 ppm [5] | mortality at 200 ppm [6]

CCS(=O)(=O)c1cc(-c2cccc[n+]2O)cnc1-c1nc2cc(C(F)(F)F)ncc2n1C [Compound P56]
≥ 80%: percent control (mortality, anti-feedancy or growth inhibition) at 12.5 ppm [7] | mortality at 200 ppm [10] | mortality at 200 ppm [1] | percent effect (mortality or growth inhibition) at 200 ppm [2] | mortality at 200 ppm [3] | percent control (mortality, anti-feedant effect or growth inhibition) at 200 ppm [4] | mortality at 24 ppm [9] | mortality at 200 ppm [6]

CCS(=O)(=O)c1cc(-n2ccc(C(F)(F)F)n2)cnc1-c1nc2cc(C(F)(F)F)ncc2n1C [Compound P2, 2-[3-ethylsulfonyl-5-[3-(trifluoromethyl)pyrazol-1-yl]-2-pyridyl]-3-methyl-6-(trifluoromethyl)imidazo[4,5-c]pyridine]
≥ 80%: percent control (mortality, anti-feedancy or growth inhibition) at 12.5 ppm [7] | mortality at 200 ppm [1] | percent effect (mortality or growth inhibition) at 200 ppm [2] | mortality at 200 ppm [8] | mortality at 200 ppm [3] | percent control (mortality, anti-feedant effect or growth inhibition) at 200 ppm [4] | pest or weed control at 200 ppm [5] | mortality at 200 ppm [6]

CCS(=O)(=O)c1cc(-c2ccc(C(F)(F)F)nc2)cnc1-c1nc2cc(C(F)(F)F)ncc2n1C [Compound P5]
≥ 80%: percent control (mortality, anti-feedancy or growth inhibition) at 12.5 ppm [7] | mortality at 200 ppm [10] | mortality at 200 ppm [1] | percent effect (mortality or growth inhibition) at 200 ppm [2] | mortality at 200 ppm [8] | mortality at 200 ppm [3] | percent control (mortality, anti-feedant effect or growth inhibition) at 200 ppm [4] | mortality at 24 ppm [9] | mortality at 200 ppm [6]
